Target: T1, H. marismortui large ribosomal subunit (Haloarcula marismortui, UniProt P32411)
T1 construct: Ribosomes were purified and crystallized as described previously; endogenous in cells; host or cells: Haloarcula marismortui (ribosomes purified from the organism)
Test: X-ray diffraction of large ribosomal subunit crystals soaked with cycloheximide
Assay type: binding
Conditions: crystals soaked with about 30 mM cycloheximide, 1% DMSO, 4° C., 24 hours; difference Fourier maps at 3.0 A resolution
Procedure: The present invention is based, in part, upon the three-dimensional structure of cycloheximide when associated with the large ribosomal subunit. Crystals of the H. marismortui large ribosomal subunit were soaked with cycloheximide at a concentration of about 30 mM, which is equivalent to about […], and the structure of the large ribosome subunit complexed with cycloheximide was resolved via X-ray diffraction studies.
Briefly, a small amount of a concentrated cycloheximide solution was added to a large subunit crystal suspended in stabilization solution and incubated for several hours. Following freezing and the other procedures normally used to prepare such crystals for experimental use, X-ray diffraction data were collected from the cycloheximide containing crystals. […]
The atomic co-ordinates of the large ribosomal subunit associated with cycloheximide are recorded on compact disk, Disk No. 1, under file name cycloheximide.pdb. […]
Electron density corresponding to the antibiotic was first seen in Fo (antibiotic)-Fc (native) difference Fourier maps at 3.0 A resolution. […] The atomic co-ordinates defining the structure of cycloheximide when bound to the large ribosomal subunit are recorded on compact disk, Disk No. 1 under file name cycloheximide.pdb.

C[C@@H]1C[C@@H]([C@H](O)CC2CC(=O)NC(=O)C2)C(=O)[C@@H](C)C1 (relative stereo) [cycloheximide, [1S-[1α(S*),3α,5β]]-4-[2-(3,5-dimethyl-2-oxocyclohexyl)-2-hydroxyethyl]-2,6-piperidinedione]
binding of cycloheximide in the large ribosomal subunit (specific vs. non-specific sites): bound to a single location in the large ribosomal subunit

Reference: patent US8374794B1, “Protein synthesis modulators” (Rib-X Pharmaceuticals, Inc., priority 2003, dated 2013)
